For one substance, T, Activity and viability results are on record in ChEMBL document CHEMBL4619748, “Enhancing the activity of membrane remodeling epsin-peptide by trimerization” (Bioorg Med Chem Lett, 2020).

In series [1] the test system is Lipid bilayer. Description: Induction of membrane-remodelling in DOPE bilayer assessed as phase transition temperature required for conversion of lamellar L-alpha phase to inverted hexagonal HII phase at peptide to lipid molar ratio of 1:100 by solid-state 31P NMR analysis (reference value: 25 degC).
In series [2] the test system is HeLa. Description: Induction of membrane-remodelling in human HeLa cells assessed as increase in cell internalization of FITC-R8 peptide at 0.5 uM incubated for 30 mins by PI staining based assay relative to control. In kind it is cell membranes.
For series [3], the system named is HeLa. Description: Cytotoxicity against human HeLa cells assessed as proportion of cells with ruptured cell membrane at 1 uM incubated for 30 mins in presence of 10 uM FITC-R8 peptide by propidium iodide staining based assay. The following applies: 0.5 h.
Series [4] concerns Lipid bilayer. Description: Binding affinity to POPC/POPS (3:1) LUVs assessed as stabilization of drug peptide's alpha helical signature with CD minima at around 208 and 222 nm and a positive ellipticity below 200 nm at 6.7 uM by CD spectroscopy.
Series [5] in a line: Cytotoxicity against human HeLa cells assessed as cell viability at <=1 uM by WST8 assay. The format is cell-based. Conditions: read-out: Activity.
For series [6], the system named is HeLa. Description: Induction of membrane-remodelling in human HeLa cells assessed as increase in cell internalization of FITC-R8 peptide at 0.25 uM incubated for 30 mins by PI staining based assay. The format is cell membranes.
Series [7] concerns HeLa. Description: Induction of membrane-remodelling in human HeLa cells assessed as increase in cell internalization of FITC-R8 peptide at 1 uM incubated for 30 mins by PI staining based assay. In kind it is cell membranes.
Series [8] deals with HeLa. Description: Induction of membrane-remodelling in human HeLa cells assessed as loosening of the lipid package by measuring decrease in generalized polarization of cell membrane at 0.5 uM incubated for 10 mins by di-4-ANEPPDHQ polarity-sensitive fluorescent membrane probe based confocal microscopic method. In kind it is cell membranes.

Activity calls are given as the source filed them. No cut-off for these calls is given here. Starred links: 1 amine or outer side, 2 acyl side, 3 side chain; linkers in the order of their positions; H or OH if unused. Positions of bridges follow the written chain, without caps; N, C: chain ends. Non-standard residues stand in square brackets, D forms with d. Chains are numbered I, II in the order given. εLys = N[C@@H](CCCCN[*:1])C(=O)[*:2]; Nle = CCCC[C@H](N)C(=O)O Bounds are passed on as bounds.

“I: H-[Nle]SSLRRQ[Nle]KNIVHNYS[εLys]GKGKG-OH / II: H-[Nle]SSLRRQ[Nle]KNIVHNYS / III: H-[Nle]SSLRRQ[Nle]KNIVHNYS (amide I:19-III:C, I:21-II:C)”: the T in the series with Lipid bilayer [1] was 46 °C. The Activity in the series on HeLa [2] was 60%; in the series with HeLa [3] it was over 10%. Also, the outcome in the series on Lipid bilayer [4], in the series on HeLa [6] and in the series with HeLa [8] was Active. In addition, the viability in series [5] is over 90%. For the same substance, the result in the series with HeLa [7] was inactive.
